Measurements: US7498321B2, “17β-carbothioate 17α-arylcarbonyloxyloxy androstane derivative as anti-inflammatory agents” (Glaxo Group Limited, priority 2000, dated 2009)
Values joined by “and” are separate entries in the source; they are usually repeats but may differ in a detail not shown here. Identical values can stand only once.

Assays:
rat hepatocytes = test: In vitro metabolism in rat hepatocytes; assay type: in vitro ADME
human hepatocytes = test: In vitro metabolism in human hepatocytes; assay type: in vitro ADME; settings: for 17-β acid metabolite production: 37° C., 10 μM
[1] = Pharmacokinetics after intravenous administration in the anaesthetised pig; assay type: in vivo
Excerpt: The clearance of these two glucocortocoids is similar is this experimental pig model.

[2] = Pharmacokinetics after intra-tracheal dry powder dosing in the pig; assay type: in vivo; settings: for time after dosing up to which quantifiable in plasma: anaesthetised pigs, intra-tracheal 1 mg, LLOQ 10 (Example 1) and 20 pg/mL (fluticasone propionate)
Protocol: Serial blood samples were taken for up to 8 h following dosing.

[3] = Pharmacokinetics after intravenous (IV) and oral dosing in rats; assay type: in vivo, male Wistar Han rats; settings: rat; for plasma clearance (in words): in vivo
[4] = molecular target: T1, glucocorticoid receptor (GR) (Homo sapiens, UniProt P04150); test: Functional in vitro assay of glucocorticoid agonist activity (NF-κB/ELAM-sPAP reporter in A549 cells, TNF stimulated); assay type: cell-based; settings: in vitro functional glucocorticoid agonist assays; versus Example 1
T1 construct: A549 cells stably transfected with a reporter gene containing the NF-κB responsive elements from the ELAM gene promoter; endogenous in cells; host or cells: A549 human lung epithelial cells (stably transfected with reporter only)
T1 sequence (P04150 1-777): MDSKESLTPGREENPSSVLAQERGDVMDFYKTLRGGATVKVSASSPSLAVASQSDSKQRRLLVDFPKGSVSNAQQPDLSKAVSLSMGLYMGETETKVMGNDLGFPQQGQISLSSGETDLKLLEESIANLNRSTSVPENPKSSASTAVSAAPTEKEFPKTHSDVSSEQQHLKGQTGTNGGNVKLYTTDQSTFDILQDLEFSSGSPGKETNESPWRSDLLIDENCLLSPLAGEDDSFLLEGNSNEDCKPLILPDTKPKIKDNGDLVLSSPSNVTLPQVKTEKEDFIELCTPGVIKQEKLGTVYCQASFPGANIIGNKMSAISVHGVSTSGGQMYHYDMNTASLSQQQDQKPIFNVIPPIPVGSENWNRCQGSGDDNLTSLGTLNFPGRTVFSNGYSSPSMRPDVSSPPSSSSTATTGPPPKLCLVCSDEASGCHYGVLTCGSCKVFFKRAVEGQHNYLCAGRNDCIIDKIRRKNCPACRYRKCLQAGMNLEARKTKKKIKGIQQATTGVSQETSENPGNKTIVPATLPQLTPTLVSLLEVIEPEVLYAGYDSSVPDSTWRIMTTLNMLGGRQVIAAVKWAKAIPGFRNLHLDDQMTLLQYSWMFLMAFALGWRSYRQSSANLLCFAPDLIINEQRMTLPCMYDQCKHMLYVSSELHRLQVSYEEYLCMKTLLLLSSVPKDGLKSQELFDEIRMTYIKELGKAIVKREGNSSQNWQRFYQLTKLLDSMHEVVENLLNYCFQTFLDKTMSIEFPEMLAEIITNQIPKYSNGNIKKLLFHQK
Protocol: Pharmacological activity was assessed in a functional in vitro assay of glucocorticoid agonist activity which is generally predictive of anti-inflammatory or anti-allergic activity in vivo.
The functional assay was based on that described by K. P. Ray et al., Biochem J. (1997), 328, 707-715. A549 cells stably transfected with a reporter gene containing the NF-κB responsive elements from the ELAM gene promoter coupled to sPAP (secreted alkaline phosphatase) were treated with test compounds at appropriate doses for 1 hour at 37° C. The cells were then stimulated with tumour necrosis factor (TNF, 10 ng/ml) for 16 hours, at which time the amount of alkaline phosphatase produced is measured by a standard colourimetric assay. Dose response curves were constructed from which EC50 values were estimated.

## C[C@@H]1CC2C3C[C@H](F)C4=CC(=O)C=C[C@]4(C)[C@@]3(F)[C@@H](O)C[C@]2(C)[C@@]1(OC(=O)c1ccco1)C(=O)SCF (stereo partly drawn) [Example 1, 6α, 9α-Difluoro-17α-[(2-furanylcarbonyl)oxy]-11β-hydroxy-16α-methyl-3-oxo-androsta-1,4-diene-17β-carbothioic acid S-fluoromethyl ester]
Rat hepatocytes
  manner of metabolism (in words): metabolised in an identical manner to fluticasone propionate
Human hepatocytes; human hepatocytes
  manner of metabolism (in words): metabolised in an identical manner to fluticasone propionate
Human hepatocytes; subject 1, 0.2 million cells/mL
  17-β acid metabolite production: 48.9 pmol/h
Human hepatocytes; subject 1, 0.7 million cells/mL
  17-β acid metabolite production: 73.3 pmol/h
Human hepatocytes; subject 2, 0.2 million cells/mL
  17-β acid metabolite production: 118 pmol/h
Human hepatocytes; subject 2, 0.7 million cells/mL
  17-β acid metabolite production: 903 pmol/h
Human hepatocytes; subject 3, 0.7 million cells/mL
  17-β acid metabolite production: 580 pmol/h
[1]; IV 0.1 mg/kg
  clearance compared with fluticasone propionate (in words): similar
[1]; IV mixture of the two compounds at 0.1 mg/kg
  pharmacokinetic parameters compared with fluticasone propionate (in words): the same
[2]; Pig 1, intra-tracheal 1 mg dry powder blend in lactose
  AUC (0-inf): 0.254 ng·h/mL
[2]; Pig 2, intra-tracheal 1 mg dry powder blend in lactose
  AUC (0-inf): 0.221 ng·h/mL
[2]
  time after dosing up to which quantifiable in plasma: up to 2 hours
[3]
  plasma clearance (in words): approaching hepatic blood flow
[3]; oral 0.1 mg/kg vs IV 0.1 mg/kg, 0.1 mg/kg
  oral bioavailability: < 1% and 0.9%

## CC1CC2C3CC(F)C4=CC(=O)C=CC4(C)C3(F)C(O)CC2(C)C1(OC(=O)c1ccsc1)C(=O)SCF (stereo not drawn) [Example 4, 6α,9α-Difluoro-11β-hydroxy-16α-methyl-3-oxo-17α-[(3-thienylcarbonyl)oxy]-androsta-1,4-diene-17β-carbothioic acid S-fluoromethyl ester]
[3]
  plasma clearance (in words): approaching hepatic blood flow

## Cc1ccoc1C(=O)OC1(C(=O)SCF)C(C)CC2C3CC(F)C4=CC(=O)C=CC4(C)C3(F)C(O)CC21C (stereo not drawn) [Example 19, 6α,9α-Difluoro-11β-hydroxy-16α-methyl-17α-[(3-methylfuran-2-carbonyl)oxy]-3-oxo-androsta-1,4-diene-17β-carbothioic acid S-fluoromethyl ester]
[3]
  plasma clearance (in words): approaching hepatic blood flow

## Cc1cc(C(=O)OC2(C(=O)SCF)C(C)CC3C4CC(F)C5=CC(=O)C=CC5(C)C4(F)C(O)CC32C)no1 (stereo not drawn) [Example 24, 6α,9α-Difluoro-11β-hydroxy-16α-methyl-17α-[(5-methylisoxazole-3-carbonyl)oxy]-3-oxo-androsta-1,4-diene-17β-carbothioic acid S-fluoromethyl ester]
[3]
  plasma clearance (in words): approaching hepatic blood flow

## Cc1cc(C(=O)OC2(C(=O)SCF)C(C)CC3C4CC(F)C5=CC(=O)C=CC5(C)C4(F)C(O)CC32C)on1 (stereo not drawn) [Example 25, 6α,9α-Difluoro-11β-hydroxy-16α-methyl-17α-[(3-methylisoxazole-5-carbonyl)oxy]-3-oxo-androsta-1,4-diene-17β-carbothioic acid S-fluoromethyl ester]
[3]
  plasma clearance (in words): approaching hepatic blood flow

## CC1CC2C3CC(F)C4=CC(=O)C=CC4(C)C3(F)C(O)CC2(C)C1(OC(=O)c1ccon1)C(=O)SCF (stereo not drawn) [Example 28, 6α,9α-Difluoro-11β-hydroxy-17α-[(isoxazole-3-carbonyl)oxy]-16α-methyl-3-oxo-androsta-1,4-diene-17β-carbothioic acid S-fluoromethyl ester]
[3]
  plasma clearance (in words): approaching hepatic blood flow

## CCC(=O)O[C@]1(C(=O)SCF)[C@H](C)C[C@H]2[C@@H]3C[C@H](F)C4=CC(=O)C=C[C@]4(C)[C@@]3(F)[C@@H](O)C[C@@]21C [Fluticasone propionate, 6α, 9α-Difluoro-17α-(1-oxopropoxy)-11β-hydroxy-16α-methyl-3-oxo-androsta-1,4-diene-17β-carbothioic acid S-fluoromethyl ester, reference compound]
[2]
  time after dosing up to which quantifiable in plasma: up to 8 hours

## C[C@@H]1C[C@H]2[C@@H]3C[C@H](F)C4=CC(=O)C=C[C@]4(C)[C@@]3(F)[C@@H](O)C[C@]2(C)[C@@]1(OC(=O)c1ccco1)C(=O)O [Metabolite (X)]
[4]
  fold less active than the parent compound: > 1000 fold
